Results taken from patent publication US20250186627A1, “RADIOLABELED COMPOUNDS TARGETING THE PROSTATE-SPECIFIC MEMBRANE ANTIGEN” (PROVINCIAL HEALTH SERVICES AUTHORITY, priority 2022, published 2025).
*1 amine or outer side, *2 acyl side, *3 side chain or, on linkers, in order; H or OH if unused. Where a SMILES comes first, the peptide text is derived from it. [ ]: non-standard residue; d: D form. The star is where a group is joined. X4 = O=C(N[C@@H](CCCCN*)C(=O)O)N[C@@H](C[C@@H](F)C(=O)O)C(=O)O; Butanoyl(4-(4-NO2Ph)) = O=C(CCCc1ccc([N+](=O)[O-])cc1)*; DOTA = O=C(O)CN1CCN(CC(=O)O)CCN(CC(=O)*)CCN(CC(=O)O)CC1; EuK = O=C(O)CC[C@H](NC(=O)N[C@@H](CCCCN*)C(=O)O)C(=O)O; Ala(9-anthryl) = N[C@@H](Cc1c2ccccc2cc2ccccc12)C(=O)O; X1 = O=C(C1CCC(CN[*:1])CC1)[*:2]

Biological target: T1, PSMA (Homo sapiens, UniProt Q04609)
T1 construct: endogenous in cells; host or cells: LNCaP cells
Assay: In vitro PSMA competitive binding assay, LNCaP cells, [18F]DCFPyL radioligand
Settings: [18F]DCFPyL 0.1 nM, read-out: PSMA binding affinity (Ki)
Protocol: Inhibition constants (Ki) to PSMA were measured by in vitro competition binding assays using [^18F]DCFPyL as the radioligand. LNCaP cells which were plated onto a 24-well poly-D-lysine coated plate for 48 h (400,000/well). Growth medium was removed and replaced with HEPES buffered saline (50 mM HEPES, pH 7.5, 0.9% sodium chloride). After 1 h, [^18F]DCFPyL (0.1 nM) was added to each well (in triplicate) containing varied concentrations ([…]) of tested compounds The assay mixtures were incubated for 1 h at 37° C. with gentle agitation followed by two washes with cold HEPES buffered saline. A trypsin solution (0.25%, 400 μL) was then added to each well to harvest the cells. Radioactivity was measured by gamma counting and Ki values calculated using the ‘one site—fit Ki’ built-in model in Prism 8 (GraphPad).

T1 sequence (Q04609 whole entry): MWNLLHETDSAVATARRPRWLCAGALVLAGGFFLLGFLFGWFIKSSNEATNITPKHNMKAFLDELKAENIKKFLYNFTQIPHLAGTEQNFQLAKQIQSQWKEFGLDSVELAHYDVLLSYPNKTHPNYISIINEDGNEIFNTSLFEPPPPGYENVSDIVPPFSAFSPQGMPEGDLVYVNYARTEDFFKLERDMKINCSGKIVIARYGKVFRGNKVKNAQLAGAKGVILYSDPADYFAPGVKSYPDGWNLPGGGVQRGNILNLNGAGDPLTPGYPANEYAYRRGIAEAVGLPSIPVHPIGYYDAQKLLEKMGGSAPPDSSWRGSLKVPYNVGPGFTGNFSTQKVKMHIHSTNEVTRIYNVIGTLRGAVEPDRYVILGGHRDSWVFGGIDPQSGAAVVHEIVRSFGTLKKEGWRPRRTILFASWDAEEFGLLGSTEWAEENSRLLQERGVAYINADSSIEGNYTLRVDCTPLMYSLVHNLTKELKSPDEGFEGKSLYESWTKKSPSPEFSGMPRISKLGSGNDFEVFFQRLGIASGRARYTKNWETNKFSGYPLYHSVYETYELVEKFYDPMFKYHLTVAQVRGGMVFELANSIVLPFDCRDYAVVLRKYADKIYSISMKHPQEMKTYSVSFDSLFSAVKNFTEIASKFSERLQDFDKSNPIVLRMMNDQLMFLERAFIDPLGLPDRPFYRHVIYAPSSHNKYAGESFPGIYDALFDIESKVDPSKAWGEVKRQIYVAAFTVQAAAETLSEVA

SMILES | Ki
O=C(O)CCC[C@H](NC(=O)N[C@@H](CCCCNC(=O)[C@H](Cc1c2ccccc2cc2ccccc12)NC(=O)C1CCC(NC(=O)CNC(=O)C[C@H](CCCCNC(=O)CN2CCN(CC(=O)O)CCN(CC(=O)O)CCN(CC(=O)O)CC2)NC(=O)CNC(=O)CCCc2ccc([N+](=O)[O-])cc2)CC1)C(=O)O)C(=O)O (stereo partly drawn) [CCZ02022] | 11.2 nM
O=C(O)CC[C@H](NC(=O)N[C@@H](CCCCNC(=O)[C@H](Cc1c2ccccc2cc2ccccc12)NC(=O)C1CCC(CNC(=O)CNC(=O)[C@H](CCCCNC(=O)CN2CCN(CC(=O)O)CCN(CC(=O)O)CCN(CC(=O)O)CC2)NC(=O)CNC(=O)CCCc2ccc([N+](=O)[O-])cc2)CC1)C(=O)O)C(=O)O (stereo partly drawn) [CCZ02024] ({Butanoyl(4-(4-NO2Ph))}-GK(DOTA)G[X1][Ala(9-anthryl)]-EuK) | 1.54 nM
O=C(O)CN1CCN(CC(=O)O)CCN(CC(=O)NCCCC[C@H](NC(=O)CNC(=O)CCCc2ccc([N+](=O)[O-])cc2)C(=O)NCC(=O)NCC2CCC(C(=O)N[C@@H](Cc3c4ccccc4cc4ccccc34)C(=O)NCCCC[C@H](NC(=O)N[C@@H](C[C@@H](F)C(=O)O)C(=O)O)C(=O)O)CC2)CCN(CC(=O)O)CC1 (stereo partly drawn) [CCZ02025] ({Butanoyl(4-(4-NO2Ph))}-GK(DOTA)G[X1][Ala(9-anthryl)]-X4) | 0.59 nM
